This note sets out measurements from patent US20240238423A9, “TETRAHYDROISOQUINOLINE HETEROBIFUNCTIONAL BCL-XL DEGRADERS” (Treeline Biosciences, Inc., priority 2022, published 2024).

This assay has as its target T1, Human BCL-XL protein (N-terminal HiBiT tagged BCL-XL in HT1080 cells) (Homo sapiens, UniProt Q07817).
T1 construct: expressed in transfected cells; host or cells: HT-1080 (ATCC CCL-121), stably transduced with lentivirus pLV-UBC-N-HiBiT-BCL-XL-PGK-puro and selected with puromycin
Nature of the assay: HiBiT based degradation assay. The class given is cell-based. As to conditions: HT1080 cells expressing HiBiT-BCL-XL; for Ymin (24 h) / Ymin (6 h): BCL-XL degradation normalized with DMSO control; for DC50: BCL-XL degradation. An outline of the steps: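 This HiBiT degradation assay measured loss of BCL-XL in HT1080 cells that stably express an N-terminal HiBiT-BCL-XL fusion delivered by lentivirus. Cells were added to compound-spotted 384-well plates, and luminescence was read on a PHERAstar FSX reader. Signal was expressed relative to DMSO controls, curves were fitted by four-parameter logistic regression, and for hook-shaped curves the Ymin point served as the bottom plateau when calculating EC50.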
On the technique in general: With HiBiT, luminescence reflects the tagged protein that the partner subunit can reach.

SMILES strings stand for the structures. Where two headings read alike, the source gives them in different places.

T1 sequence (Q07817 whole entry): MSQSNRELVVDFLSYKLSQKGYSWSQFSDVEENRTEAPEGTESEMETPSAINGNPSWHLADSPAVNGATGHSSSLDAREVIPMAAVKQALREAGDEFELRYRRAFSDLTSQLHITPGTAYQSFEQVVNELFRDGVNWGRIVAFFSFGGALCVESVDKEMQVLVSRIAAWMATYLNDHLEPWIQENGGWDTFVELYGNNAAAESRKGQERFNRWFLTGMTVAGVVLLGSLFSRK

In the case of `Cc1c(O[C@H]2CC[C@H](CC(F)(F)CN3CCN(c4ccc5c(C6CCC(=O)NC6=O)nn(C)c5c4)CC3)CC2)cccc1-c1ccc(N2CCc3cccc(C(=O)Nc4nc5ccccc5s4)c3C2)nc1C(=O)O` (stereo partly shown) [Compound 212a, 6-(8-(benzo[d]thiazol-2-ylcarbamoyl)-3,4-dihydroisoquinolin-2(1H)-yl)-3-(3-(((1r,4r)-4-(3-(4-(3-(2,6-dioxopiperidin-3-yl)-1-methyl-1H-indazol-6-yl)piperazin-1-yl)-2,2-difluoropropyl)cyclohexyl)oxy)-2-methylphenyl)picolinic acid], the “Ymin (24 h)” value (24 h) was “B (50% ≤ Ymin < 70%)”. For the setting “24 h, read-out: EC50 (24 h)”, the DC50 is below 0.1 µM.

`Cc1c(OCCCCC2CCN(CC(=O)Nc3cccc4c(C5CCC(=O)NC5=O)nn(C)c34)CC2)cccc1-c1ccc(N2CCc3cccc(C(=O)Nc4nc5ccccc5s4)c3C2)nc1C(=O)O` (stereo not shown) [Compound 213, 6-(8-(benzo[d]thiazol-2-ylcarbamoyl)-3,4-dihydroisoquinolin-2(1H)-yl)-3-(3-(4-(1-(2-((3-(2,6-dioxopiperidin-3-yl)-1-methyl-1H-indazol-7-yl)amino)-2-oxoethyl)piperidin-4-yl)butoxy)-2-methylphenyl)picolinic acid]: where the note is “6 h”, the “Ymin (6 h)” value is “C (Ymin ≥ 70%)”. For the same molecule, the “Ymin (24 h)” value (24 h) is “A (Ymin < 50%)”. Further, the DC50 by setting is: (6 h, read-out: EC50 (6 h)) 1 to 10 µM; (24 h, read-out: EC50 (24 h)) 0.1 to 1 µM.

With `Cc1c(O[C@H]2CC[C@H](CCCC(=O)N3CCN(c4cccc5c(C6CCC(=O)NC6=O)nn(C)c45)CC3)CC2)cccc1-c1ccc(N2CCc3cccc(C(=O)Nc4nc5ccccc5s4)c3C2)nc1C(=O)O` (stereo partly shown) [Compound 214a, 6-(8-(benzo[d]thiazol-2-ylcarbamoyl)-3,4-dihydroisoquinolin-2(1H)-yl)-3-(3-(((1s,4r)-4-(4-(4-(3-(2,6-dioxopiperidin-3-yl)-1-methyl-1H-indazol-7-yl)piperazin-1-yl)-4-oxobutyl)cyclohexyl)oxy)-2-methylphenyl)picolinic acid], the “Ymin (24 h)” value (24 h) is “B (50% ≤ Ymin < 70%)”. In addition, the DC50 (24 h, read-out: EC50 (24 h)) is below 0.1 µM.

Take `Cc1c(O[C@H]2CC[C@H](CCN3CCN(c4cccc5c(C6CCC(=O)NC6=O)nn(C)c45)CC3)CC2)cccc1-c1ccc(N2CCc3cccc(C(=O)Nc4nc5ccccc5s4)c3C2)nc1C(=O)O` (stereo partly shown) [Compound 215a, 6-(8-(benzo[d]thiazol-2-ylcarbamoyl)-3,4-dihydroisoquinolin-2(1H)-yl)-3-(3-(((1r,4r)-4-(2-(4-(3-(2,6-dioxopiperidin-3-yl)-1-methyl-1H-indazol-7-yl)piperazin-1-yl)ethyl)cyclohexyl)oxy)-2-methylphenyl)picolinic acid]: for the setting “24 h”, the “Ymin (24 h)” value is reported as “C (Ymin ≥ 70%)”. Besides, the DC50 (24 h, read-out: EC50 (24 h)) is below 0.1 µM.

On to `Cc1c(OCCCC2CCN([C@@H](C)C(=O)Nc3cccc4c(C5CCC(=O)NC5=O)nn(C)c34)CC2)cccc1-c1ccc(N2CCc3cccc(C(=O)Nc4nc5ccccc5s4)c3C2)nc1C(=O)O` (stereo partly drawn) [Compound 216a, 6-(8-(benzo[d]thiazol-2-ylcarbamoyl)-3,4-dihydroisoquinolin-2(1H)-yl)-3-(3-(3-(1-((2S)-1-((3-(2,6-dioxopiperidin-3-yl)-1-methyl-1H-indazol-7-yl)amino)-1-oxopropan-2-yl)piperidin-4-yl)propoxy)-2-methylphenyl)picolinic acid], for which, for the setting “24 h”, the “Ymin (24 h)” value is “B (50% ≤ Ymin < 70%)”. The DC50 (24 h, read-out: EC50 (24 h)) is below 0.1 µM.

Take `Cc1c(OCCCC2CCN([C@H](C)C(=O)Nc3cccc4c(C5CCC(=O)NC5=O)nn(C)c34)CC2)cccc1-c1ccc(N2CCc3cccc(C(=O)Nc4nc5ccccc5s4)c3C2)nc1C(=O)O` (stereo partly drawn) [Compound 216b, 6-(8-(benzo[d]thiazol-2-ylcarbamoyl)-3,4-dihydroisoquinolin-2(1H)-yl)-3-(3-(3-(1-((2R)-1-((3-(2,6-dioxopiperidin-3-yl)-1-methyl-1H-indazol-7-yl)amino)-1-oxopropan-2-yl)piperidin-4-yl)propoxy)-2-methylphenyl)picolinic acid]: the “Ymin (24 h)” value (24 h) is on record as “B (50% ≤ Ymin < 70%)”. The DC50 (24 h, read-out: EC50 (24 h)) is below 0.1 µM.

In the case of `Cc1c(OCCCCCCCCN2CCN(c3cccc4c(C5CCC(=O)NC5=O)nn(C)c34)CC2)cccc1-c1ccc(N2CCc3cccc(C(=O)Nc4nc5ccccc5s4)c3C2)nc1C(=O)O` (stereo not shown) [Compound 217, 6-[8-(1,3-benzothiazol-2-ylcarbamoyl)-3,4-dihydro-1H-isoquinolin-2-yl]-3-[3-[8-[4-[3-(2,6-dioxo-3-piperidyl)-1-methyl-indazol-7-yl]piperazin-1-yl]octoxy]-2-methyl-phenyl]pyridine-2-carboxylic acid], the “Ymin (6 h)” value (6 h) is on record as “B (50% ≤ Ymin < 70%)”. Under “24 h”, the “Ymin (24 h)” value is listed as “B (50% ≤ Ymin < 70%)”. The DC50 was below 0.1 µM (6 h, read-out: EC50 (6 h)) and below 0.1 µM (24 h, read-out: EC50 (24 h)).

Take `Cc1c(OCCCN2CCN(CC(=O)Nc3cccc4c(C5CCC(=O)NC5=O)nn(C)c34)[C@@H](C(F)(F)F)C2)cccc1-c1ccc(N2CCc3cccc(C(=O)Nc4nc5ccccc5s4)c3C2)nc1C(=O)O` (stereo partly drawn) [Compound 218a, 6-(8-(benzo[d]thiazol-2-ylcarbamoyl)-3,4-dihydroisoquinolin-2(1H)-yl)-3-(3-(3-((3R)-4-(2-((3-(2,6-dioxopiperidin-3-yl)-1-methyl-1H-indazol-7-yl)amino)-2-oxoethyl)-3-(trifluoromethyl)piperazin-1-yl)propoxy)-2-methylphenyl)picolinic acid]: the “Ymin (6 h)” value (6 h) is on record as “C (Ymin ≥ 70%)”. For the same molecule, the “Ymin (24 h)” value (24 h) is recorded as “B (50% ≤ Ymin < 70%)”. The DC50 was 1 to 10 µM (6 h, read-out: EC50 (6 h)) and 0.1 to 1 µM (24 h, read-out: EC50 (24 h)).

For the molecule `Cc1c(OCCCN2CCN(CC(=O)Nc3cccc4c(C5CCC(=O)NC5=O)nn(C)c34)[C@H](C(F)(F)F)C2)cccc1-c1ccc(N2CCc3cccc(C(=O)Nc4nc5ccccc5s4)c3C2)nc1C(=O)O` (stereo partly drawn) [Compound 218b, 6-(8-(benzo[d]thiazol-2-ylcarbamoyl)-3,4-dihydroisoquinolin-2(1H)-yl)-3-(3-(3-((3S)-4-(2-((3-(2,6-dioxopiperidin-3-yl)-1-methyl-1H-indazol-7-yl)amino)-2-oxoethyl)-3-(trifluoromethyl)piperazin-1-yl)propoxy)-2-methylphenyl)picolinic acid], where the note is “6 h”, the “Ymin (6 h)” value is “C (Ymin ≥ 70%)”. Also, the “Ymin (24 h)” value (24 h) is reported as “C (Ymin ≥ 70%)”. In addition, the DC50 runs as follows: (6 h, read-out: EC50 (6 h)) 1 to 10 µM; (24 h, read-out: EC50 (24 h)) 0.1 to 1 µM.

Turning to `Cc1c(OCC[C@@H]2CCN(CC(=O)Nc3ccc4c(C5CCC(=O)NC5=O)nn(C)c4c3)C2)cccc1-c1ccc(N2CCc3cccc(C(=O)Nc4nc5ccccc5s4)c3C2)nc1C(=O)O` (stereo partly drawn) [Compound 219a, 6-[8-(1,3-benzothiazol-2-ylcarbamoyl)-3,4-dihydro-1H-isoquinolin-2-yl]-3-[3-[2-[(3S)-1-[2-[[3-(2,6-dioxo-3-piperidyl)-1-methyl-indazol-6-yl]amino]-2-oxo-ethyl]pyrrolidin-3-yl]ethoxy]-2-methyl-phenyl]pyridine-2-carboxylic acid], the “Ymin (24 h)” value (24 h) was “A (Ymin < 50%)”. Where the note is “24 h, read-out: EC50 (24 h)”, the DC50 was below 0.1 µM.

For the molecule `Cc1c(OCC[C@H]2CCN(CC(=O)Nc3ccc4c(C5CCC(=O)NC5=O)nn(C)c4c3)C2)cccc1-c1ccc(N2CCc3cccc(C(=O)Nc4nc5ccccc5s4)c3C2)nc1C(=O)O` (stereo partly drawn) [Compound 219b, 6-[8-(1,3-benzothiazol-2-ylcarbamoyl)-3,4-dihydro-1H-isoquinolin-2-yl]-3-[3-[2-[(3R)-1-[2-[[3-(2,6-dioxo-3-piperidyl)-1-methyl-indazol-6-yl]amino]-2-oxo-ethyl]pyrrolidin-3-yl]ethoxy]-2-methyl-phenyl]pyridine-2-carboxylic acid], the “Ymin (6 h)” value (6 h) is given as “B (50% ≤ Ymin < 70%)”. Also, the “Ymin (24 h)” value (24 h) was “A (Ymin < 50%)”. Besides, the DC50 runs as follows: (6 h, read-out: EC50 (6 h)) below 0.1 µM; (24 h, read-out: EC50 (24 h)) below 0.1 µM.

`Cc1c(OCCCC2CCN(CCN3CCN(c4ccc5c(C6CCC(=O)NC6=O)nn(C)c5c4)CC3)CC2)cccc1-c1ccc(N2CCc3cccc(C(=O)Nc4nc5ccccc5s4)c3C2)nc1C(=O)O` (stereo not shown) [Compound 220, 6-[8-(1,3-benzothiazol-2-ylcarbamoyl)-3,4-dihydro-1H-isoquinolin-2-yl]-3-[3-[3-[1-[2-[4-[3-(2,6-dioxo-3-piperidyl)-1-methyl-indazol-6-yl]piperazin-1-yl]ethyl]-4-piperidyl]propoxy]-2-methyl-phenyl]pyridine-2-carboxylic acid]: for the setting “24 h”, the “Ymin (24 h)” value is listed as “A (Ymin < 50%)”. The DC50 (24 h, read-out: EC50 (24 h)) was below 0.1 µM.

For the molecule `Cc1c(OCCCN2CCN(CC3CCN(c4cccc5c(C6CCC(=O)NC6=O)nn(C)c45)CC3)CC2)cccc1-c1ccc(N2CCc3cccc(C(=O)Nc4nc5ccccc5s4)c3C2)nc1C(=O)O` (stereo not shown) [Compound 221, 6-(8-(benzo[d]thiazol-2-ylcarbamoyl)-3,4-dihydroisoquinolin-2(1H)-yl)-3-(3-(3-(4-((1-(3-(2,6-dioxopiperidin-3-yl)-1-methyl-1H-indazol-7-yl)piperidin-4-yl)methyl)piperazin-1-yl)propoxy)-2-methylphenyl)picolinic acid], the “Ymin (24 h)” value (24 h) is “A (Ymin < 50%)”. Further, the DC50 (24 h, read-out: EC50 (24 h)) is below 0.1 µM.

In the case of `Cc1c(OCCCCCCN2CCN(c3ccc4c(C5CCC(=O)NC5=O)nn(C)c4c3)CC2)cccc1-c1ccc(N2CCc3cccc(C(=O)Nc4nc5ccccc5s4)c3C2)nc1C(=O)O` (stereo not shown) [Compound 222, 6-(8-(benzo[d]thiazol-2-ylcarbamoyl)-3,4-dihydroisoquinolin-2(1H)-yl)-3-(3-((6-(4-(3-(2,6-dioxopiperidin-3-yl)-1-methyl-1H-indazol-6-yl)piperazin-1-yl)hexyl)oxy)-2-methylphenyl)picolinic acid], the “Ymin (6 h)” value (6 h) was “B (50% ≤ Ymin < 70%)”. The “Ymin (24 h)” value (24 h) is reported as “A (Ymin < 50%)”. For the same molecule, the DC50 runs as follows: (6 h, read-out: EC50 (6 h)) below 0.1 µM; (24 h, read-out: EC50 (24 h)) below 0.1 µM.
